Measurements published in patent US20260216139A1, “METHOD FOR TREATING NEUROLOGICAL DISEASES THROUGH GLIAL PRUNING REGULATION” (Fred Hutchinson Cancer Center, priority 2022, published 2026).

Test system: C. elegans
Test: Effects of exposure to drugs on glial pruning: number of engulfed AFD neuron fragments in AMsh glia
Assay type: in vivo
Conditions: for number of engulfed fragments of neuron within glia: pdr-1 mutant animals, upon drug exposure; for suppression of defects, judged by the number of engulfed fragments in glia: pdr-1 single or pdr-1
Experimental: C. elegans were cultured as known to one of skill in the art. Bristol N2 strain was used as wild type. For all experiments, animals were raised at 20° C. for at least two generations without starvation, picked as L4 larvae onto fresh plate, and assayed 1 day later unless otherwise noted. For analysis of glial engulfment, animals were crossed to the strain dnals13, an integrated transgene bearing gcy-23: GFP recombineered fosmid outcrossed to Bristol N2 four times. To control environmental variations, worms were raised from egg-lay in a humidity and temperature-controlled environment until imaging. Worms were staged at the L4 stage using vulval anatomy. Day 1 adult animals were staged at the L4 stage and then grown for approximately 24 more hours (unless otherwise stated) in the controlled environment. Worms were imaged and glial engulfment was analyzed as described in the methods below.
Worms were immobilized with 40 mM sodium azide. Images were collected on a Deltavision® Elite RoHS wide-field deconvolution system with Ultimate Focus® (GE), a PlanApo 60×/1.42 NA or OLY 100×/1.40 NA oil-immersion objective, and a DV Elite CMOS Camera. Images of the AFD puncta in the region of the AMsh were taken at 100× using FITC with 100% transmission and 0.0405 ms exposure with a reference image taken at 5% POL in the middle of the sample. For worms expressing an extrachromosomal array tagged with mCherry, images were also taken using an A594 filter with 0.02 ms exposure to ensure expression of the array in the cell of interest. Images were then deconvolved and cropped to 1024×1024 in the area of interest. Next, images were processed using FIJI®. All images were converted to 8-bit and brightness and contrast were set with a minimum of 0 and a maximum of 50. Next, a rectangle is drawn around the region of the AMsh adjacent to, but not including, the AFD cell body and excluding any area along the AFD process. Next, the image is cropped to this region, and the tool “3D Objects Counter” is run with the following settings: threshold=35; size min.=5 max.=7225848; exclude objects side. This number of puncta is then verified by eye and recorded.
Data and statistics were either graphed and analyzed using Prism9 or by using R. Statistical analysis in R was conducted using the open-source data visualization package ggplot2. Data is represented in a boxplot with each point representing the number of puncta engulfed within the cell body of one AMsh glia in a single worm. Dots represent the biological replicate in which the individual worm was imaged unless otherwise specified to represent genotype.
4 mL standard C. elegans nematode growth medium (NGM) was aliquoted into 35 mm Petri dishes and stored at 4 degrees Celsius. Plates were warmed to room temperature and seeded with 100 μL of OP50 and dried overnight. Plates were then spotted with 100 μL of diluted SP600125 (in DMSO), Apocynin (in DMSO), or EHop-016 (in DMSO) for a final concentration of 0.5% or 1% DMSO (as labeled) and a final concentration of the treatment drug of 50 μM (unless otherwise specified). Spot treatment was allowed to dry before L1 staged C. elegans were transferred onto the plate. Worms were then imaged approximately 2 days later. Worms were staged at this time by vulval anatomy, body size, and the presence or absence of eggs. […] At this time, worms were imaged, and glial engulfment levels were analyzed.

Compound | number of engulfed fragments of neuron within glia | suppression of defects, judged by the number of engulfed fragments in glia (pink-1 double mutant animals) | further results
CC(C)C[C@@H](C=O)NC(=O)[C@H](CC(C)C)NC(=O)[C@H](CC(C)C)NC(=O)OCc1ccccc1 (racemic) [MG-132] | reduction | – | –
CCn1c2ccccc2c2cc(Nc3ccnc(NCCCN4CCOCC4)n3)ccc21 (racemic) [EHOP-016] | – | did not suppress | pruning (pdr-1, pink-1 double mutant animals, 10 μM): increased; pdr-1 defect (pruning) (pdr-1 lesion animals (FIG. 21C right), 10 μM): increased; pruning (wild type animals, 10 μM): increase
COc1cc(C(C)=O)ccc1O (racemic) [Apocynin, acetovanillone] | – | suppress | –
CO[C@H]1C[C@@H]2CC[C@@H](C)[C@@](O)(O2)C(=O)C(=O)N2CCCC[C@H]2C(=O)O[C@H]([C@H](C)C[C@@H]2CC[C@@H](O)[C@H](OC)C2)CC(=O)[C@H](C)/C=C(\C)[C@@H](O)[C@@H](OC)C(=O)[C@H](C)C[C@H](C)/C=C/C=C/C=C/1C [rapamycin] | no change | – | –
O=[N+]([O-])c1ccc(O)c([N+](=O)[O-])c1 [DNP] | no change | – | –
